Data on 20 molecules can be found in patent US20240190854A1, “PYRIMIDINE OR PYRIDINE DERIVATIVES USEFUL AS HCN2 MODULATORS” (King's College London, priority 2021, published 2024).

In series [1] the target is T1, hERG channel (Homo sapiens (Human), UniProt Q12809). Briefly: hERG assay using Sophion Qube. In kind it is cell-based. To be noted: Sophion Qube protocol; read-out: SQ hERG IC50. The method, then:
Example 127B, Using Sophion Qube
Solutions for recording hERG currents were:
This voltage protocol was applied every 15 seconds for the duration of the experiment. Both the vehicle and 1st compound addition periods were applied for 10 sweeps. The 2nd compound addition period was applied for 20 sweeps. The compound concentration was added to the test well twice to assure complete exchange of the external buffer with the test compound. In total, compound was applied to the well for 450 seconds.

The target of series [2] is T2, HCN2 (Homo sapiens (Human), UniProt Q9UL51). The series can be described thus: HCN2 current assay using the Sophion Qube. To be noted: Sophion Qube protocol; read-out: SQ HCN2 IC50. In kind it is cell-based. The method, then: (§1) Example 126B, Using the Sophion Qube
T2 sequence (Q9UL51 whole entry): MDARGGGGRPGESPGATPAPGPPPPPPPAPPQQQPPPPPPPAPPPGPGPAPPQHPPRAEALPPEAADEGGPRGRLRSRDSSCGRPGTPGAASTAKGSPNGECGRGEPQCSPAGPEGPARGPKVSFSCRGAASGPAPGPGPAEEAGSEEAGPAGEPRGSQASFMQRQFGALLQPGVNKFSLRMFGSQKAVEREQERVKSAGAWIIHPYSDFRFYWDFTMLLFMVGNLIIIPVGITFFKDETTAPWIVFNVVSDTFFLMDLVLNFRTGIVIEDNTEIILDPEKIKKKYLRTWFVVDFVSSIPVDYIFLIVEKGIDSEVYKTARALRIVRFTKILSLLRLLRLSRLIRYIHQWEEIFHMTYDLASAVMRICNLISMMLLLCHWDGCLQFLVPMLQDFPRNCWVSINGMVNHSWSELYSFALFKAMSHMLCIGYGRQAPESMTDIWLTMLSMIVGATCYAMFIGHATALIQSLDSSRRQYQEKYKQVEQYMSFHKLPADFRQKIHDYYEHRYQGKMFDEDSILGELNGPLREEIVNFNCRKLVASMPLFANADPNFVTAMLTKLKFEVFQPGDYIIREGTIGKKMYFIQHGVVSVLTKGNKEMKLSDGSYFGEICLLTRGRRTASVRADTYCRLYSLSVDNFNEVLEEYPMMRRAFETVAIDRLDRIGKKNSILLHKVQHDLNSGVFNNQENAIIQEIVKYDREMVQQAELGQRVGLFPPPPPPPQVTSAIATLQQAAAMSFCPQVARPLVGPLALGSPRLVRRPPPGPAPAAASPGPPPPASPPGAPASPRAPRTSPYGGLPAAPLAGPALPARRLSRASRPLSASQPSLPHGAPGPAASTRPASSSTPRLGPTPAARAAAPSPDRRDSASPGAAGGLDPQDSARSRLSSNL
(§2) Solutions for recording HCN currents were:
(§3) This voltage protocol was applied every 20 seconds for the duration of the experiment. Both the vehicle (0.3% DMSO) and full block (3 mM CsCl) addition periods were applied for 10 experimental sweeps each.
(§4) The current amplitudes were measured by subtracting metric A from metric B (see FIG. 2) with inhibition calculated by normalising to the vehicle addition (0.3% DMSO) and full inhibition by 3 mM CsCl in the same well.
(§5) In total, compound was applied to the well for 600 seconds.

Series [3] deals with T3, hNav1.5 (Homo sapiens (Human), UniProt Q14524).
Method: The cells were held at −100 mV followed by a depolarising step to −10 mV for 100 milliseconds before stepping back to −100 mV, this represents 1 experimental sweep.
For tonic block (0.1 Hz), the peak currents evoked by the step to −10 mV were measured for the analysis of the percentage inhibition by test compounds. For use-dependent block (4 Hz), the peak current evoked at the 20th depolarising step to −10 mV was measured for the analysis of the percentage inhibition by test compounds. Peak currents were first normalised to the vehicle addition (0.3% DMSO) in the same well.
Series [4] deals with T4, HCN4 (Homo sapiens (Human), UniProt Q9Y3Q4). The series can be described thus: HCN4 current assay using the Sophion Qube. In kind it is cell-based. To be noted: Sophion Qube protocol; read-out: SQ HCN4 IC50. As for the experimental part: as §1, §2, §3, §4, §5
T4 sequence (Q9Y3Q4 whole entry, species assumed): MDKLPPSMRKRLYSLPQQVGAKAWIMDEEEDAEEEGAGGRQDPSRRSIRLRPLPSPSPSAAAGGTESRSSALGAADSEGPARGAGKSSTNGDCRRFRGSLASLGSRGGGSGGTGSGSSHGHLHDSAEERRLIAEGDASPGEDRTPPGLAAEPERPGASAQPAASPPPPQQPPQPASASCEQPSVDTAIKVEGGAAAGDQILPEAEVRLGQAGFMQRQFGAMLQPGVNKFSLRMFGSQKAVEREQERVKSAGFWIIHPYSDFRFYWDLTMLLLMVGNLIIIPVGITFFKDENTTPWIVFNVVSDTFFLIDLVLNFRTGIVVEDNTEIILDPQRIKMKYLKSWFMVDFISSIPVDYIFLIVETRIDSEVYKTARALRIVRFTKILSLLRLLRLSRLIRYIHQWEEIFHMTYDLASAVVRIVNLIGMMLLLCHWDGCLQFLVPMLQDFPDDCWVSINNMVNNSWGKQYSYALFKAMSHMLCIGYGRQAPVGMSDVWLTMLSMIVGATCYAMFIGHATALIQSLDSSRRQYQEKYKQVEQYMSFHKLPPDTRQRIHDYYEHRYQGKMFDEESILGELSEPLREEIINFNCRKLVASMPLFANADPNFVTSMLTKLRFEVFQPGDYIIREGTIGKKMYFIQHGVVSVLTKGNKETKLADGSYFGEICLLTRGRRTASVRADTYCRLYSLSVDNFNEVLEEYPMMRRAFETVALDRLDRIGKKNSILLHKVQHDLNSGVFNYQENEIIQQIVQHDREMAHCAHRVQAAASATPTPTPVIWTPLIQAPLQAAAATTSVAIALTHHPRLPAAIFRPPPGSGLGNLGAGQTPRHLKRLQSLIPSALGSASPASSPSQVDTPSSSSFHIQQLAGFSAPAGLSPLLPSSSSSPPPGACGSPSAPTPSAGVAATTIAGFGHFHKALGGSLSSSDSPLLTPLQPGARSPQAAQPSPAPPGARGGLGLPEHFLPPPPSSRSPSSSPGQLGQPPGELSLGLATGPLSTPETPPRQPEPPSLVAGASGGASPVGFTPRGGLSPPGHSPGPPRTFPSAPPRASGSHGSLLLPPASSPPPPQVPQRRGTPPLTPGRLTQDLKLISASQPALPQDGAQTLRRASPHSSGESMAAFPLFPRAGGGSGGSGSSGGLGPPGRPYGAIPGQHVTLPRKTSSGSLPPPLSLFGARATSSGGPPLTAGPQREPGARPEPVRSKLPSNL
Series [5] concerns the target T5, HCN1 (Homo sapiens (Human), UniProt O60741). Briefly: HCN1 current assay using the Sophion Qube. In kind it is cell-based. To be noted: Sophion Qube protocol; read-out: SQ HCN1 IC50. As for the experimental part: as §1, §2, §3, §4, §5
Series [6] deals with MDR1 (P-glycoprotein) (Homo sapiens (Human), UniProt P08183). Briefly: in vitro. The settings on record: dog, MDCK-MDR1, pH 7.4.
Chain of MDR1 (P-glycoprotein) (P08183 whole entry): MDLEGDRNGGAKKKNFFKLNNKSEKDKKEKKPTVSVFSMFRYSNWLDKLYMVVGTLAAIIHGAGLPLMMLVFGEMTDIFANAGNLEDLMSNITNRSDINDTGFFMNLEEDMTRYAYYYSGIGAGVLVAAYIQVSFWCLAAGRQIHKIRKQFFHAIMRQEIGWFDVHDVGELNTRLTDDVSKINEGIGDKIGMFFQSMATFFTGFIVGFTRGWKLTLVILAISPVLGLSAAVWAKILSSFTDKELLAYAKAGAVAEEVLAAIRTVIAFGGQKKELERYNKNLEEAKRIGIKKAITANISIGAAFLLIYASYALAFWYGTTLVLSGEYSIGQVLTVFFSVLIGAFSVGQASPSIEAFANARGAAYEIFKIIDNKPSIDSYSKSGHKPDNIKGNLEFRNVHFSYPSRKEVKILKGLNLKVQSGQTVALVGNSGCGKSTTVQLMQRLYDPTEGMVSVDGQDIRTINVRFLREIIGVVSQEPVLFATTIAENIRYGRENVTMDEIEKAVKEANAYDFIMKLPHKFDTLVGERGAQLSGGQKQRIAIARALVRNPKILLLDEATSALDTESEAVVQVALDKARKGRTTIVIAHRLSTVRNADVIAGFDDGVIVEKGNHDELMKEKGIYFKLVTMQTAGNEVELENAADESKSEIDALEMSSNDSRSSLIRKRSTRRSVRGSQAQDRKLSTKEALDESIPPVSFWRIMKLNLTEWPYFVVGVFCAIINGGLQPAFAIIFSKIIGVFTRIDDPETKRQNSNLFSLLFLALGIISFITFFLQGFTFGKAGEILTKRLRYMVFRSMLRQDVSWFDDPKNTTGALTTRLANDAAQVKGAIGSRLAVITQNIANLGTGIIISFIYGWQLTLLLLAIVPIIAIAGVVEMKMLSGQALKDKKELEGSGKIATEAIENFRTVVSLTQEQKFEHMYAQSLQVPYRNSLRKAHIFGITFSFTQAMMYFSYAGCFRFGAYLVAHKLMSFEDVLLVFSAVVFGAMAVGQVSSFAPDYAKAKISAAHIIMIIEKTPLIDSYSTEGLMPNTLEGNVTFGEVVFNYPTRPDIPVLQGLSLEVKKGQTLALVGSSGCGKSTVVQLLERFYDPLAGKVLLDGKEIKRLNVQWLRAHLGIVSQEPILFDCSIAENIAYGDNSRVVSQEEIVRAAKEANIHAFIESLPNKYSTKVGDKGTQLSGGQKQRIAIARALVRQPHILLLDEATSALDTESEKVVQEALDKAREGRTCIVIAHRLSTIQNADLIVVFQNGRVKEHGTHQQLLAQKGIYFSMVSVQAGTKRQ
Method: Test compounds were added (10 μM, 0.1% DMSO final, n=2) to donor compartments of the Transwell plate assembly in assay buffer (Hanks balanced salt solution supplemented with 25 mM HEPES, adjusted to pH 7.4) for both apical to basolateral (A>B) and basolateral to apical (B>A) measurements. A parallel series of incubations were performed in the presence of the transporter inhibitor elacridar (5 μM) which was added to both compartments in the transwell plate. Incubations were performed at 37° C., with samples removed from both donor and acceptor chambers at T=0 and 1 hour for recovery assessment and compound analysed by mass spectrometry (LC-MS/MS), including an analytical internal standard.
Apparent permeability (Papp) values were determined from the relationship:
Where V is the volume of each Transwell compartment (apical 125 μL, basolateral 600 μL), and concentrations are the relative MS responses for compound (normalized to internal standard) in the donor chamber before incubation and acceptor chamber at the end of the incubation.
Area=area of cells exposed for drug transfer (0.33 cm2).
Efflux ratios (Papp B>A/Papp A>B) were calculated for each compound from the mean Papp values in each direction. […] The efflux ratios were also calculated in the same way from the runs carried out in the presence of the inhibitor. The net flux is the ratio of the efflux in the absence of inhibitor to that in the presence of inhibitor.
Lucifer Yellow (LY) was added to the apical buffer in all wells to assess viability of the cell layer.
Compound recovery from the wells was determined from MS responses (normalized to internal standard) in donor and acceptor chambers at the end of incubation compared to response in the donor chamber pre-incubation.
The target in series [7] is T1, hERG channel. Briefly: hERG assay using IonWorks Quattro. It is filed as cell-based. The settings on record: IonWorks protocol; read-out: IW hERG IC50. (Block of hERG is tested as a sign of cardiac risk.)
Series [8] deals with T5, HCN1. Briefly: HCN1 current assay using PatchXpress 7000A. It is filed as cell-based. The settings on record: PatchXpress protocol; read-out: PX HCN1 IC50. As for the experimental part:
Example 126A, Using PatchXpress 7000A
as §2
The membrane voltage was then stepped back to −30 mV for a further 8 seconds.
The peak inward current measured at the end of the pulse to −110 mV (HCN1 and HCN2) or −130 mV (HCN4) was measured and any leak current subtracted to calculate the HCN current. The HCN current amplitude was measured after each control or compound addition and normalized to the control amplitude (Control A).
All experiments were performed at room temperature (approximately 22° C.).
Each test compound concentration was applied to the cell for seven (7) minutes, at which point the next cumulative concentration was applied.

The target in series [9] is T2, HCN2. Briefly: HCN2 current assay using PatchXpress 7000A. The settings on record: PatchXpress protocol; read-out: PX HCN2 IC50. It is filed as cell-based. In a few lines:
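Automated patch clamp (PatchXpress 7000A) at about 22° C. HCN current taken as leak-subtracted peak inward current at the end of a step to −110 mV, with a return to −30 mV for 8 seconds. Cumulative concentrations applied 7 minutes each; amplitude normalised to control.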

Series [10] addresses T3, hNav1.5. The source holds these as a separate data set.
Method: Solutions for recording Nav1.5 currents were:
Electrophysiological recordings were made from a human embryonic kidney (HEK) cell line stably expressing the full length hNav1.5. Population patch clamp measurements were made in the perforated patch clamp configuration (100 μg ml^−1 amphotericin) at room temperature (approx. 22° C.) using an IonWorks Quattro from Molecular Devices. […] Currents were first measured under control (pre-compound addition) conditions. […] Currents were measured from the depolarising step at the 15th pulse and referenced to the holding current.
Series [11] concerns the target T4, HCN4. Briefly: HCN4 current assay using PatchXpress 7000A. To be noted: PatchXpress protocol; read-out: PX HCN4 IC50. It is filed as cell-based. A digest of the protocol: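 Peak inward current taken at end of a −130 mV pulse, leak-subtracted, and normalized to the control amplitude. Cumulative concentrations applied for 7 min each at room temperature (approximately 22° C.) on an automated patch-clamp platform.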

pIC50: −log10 of the molar value. Where a name gives a salt, the structure may show the parent alone. Read-outs that look alike come from different tables or passages of the source.

T1 sequence (Q12809 whole entry): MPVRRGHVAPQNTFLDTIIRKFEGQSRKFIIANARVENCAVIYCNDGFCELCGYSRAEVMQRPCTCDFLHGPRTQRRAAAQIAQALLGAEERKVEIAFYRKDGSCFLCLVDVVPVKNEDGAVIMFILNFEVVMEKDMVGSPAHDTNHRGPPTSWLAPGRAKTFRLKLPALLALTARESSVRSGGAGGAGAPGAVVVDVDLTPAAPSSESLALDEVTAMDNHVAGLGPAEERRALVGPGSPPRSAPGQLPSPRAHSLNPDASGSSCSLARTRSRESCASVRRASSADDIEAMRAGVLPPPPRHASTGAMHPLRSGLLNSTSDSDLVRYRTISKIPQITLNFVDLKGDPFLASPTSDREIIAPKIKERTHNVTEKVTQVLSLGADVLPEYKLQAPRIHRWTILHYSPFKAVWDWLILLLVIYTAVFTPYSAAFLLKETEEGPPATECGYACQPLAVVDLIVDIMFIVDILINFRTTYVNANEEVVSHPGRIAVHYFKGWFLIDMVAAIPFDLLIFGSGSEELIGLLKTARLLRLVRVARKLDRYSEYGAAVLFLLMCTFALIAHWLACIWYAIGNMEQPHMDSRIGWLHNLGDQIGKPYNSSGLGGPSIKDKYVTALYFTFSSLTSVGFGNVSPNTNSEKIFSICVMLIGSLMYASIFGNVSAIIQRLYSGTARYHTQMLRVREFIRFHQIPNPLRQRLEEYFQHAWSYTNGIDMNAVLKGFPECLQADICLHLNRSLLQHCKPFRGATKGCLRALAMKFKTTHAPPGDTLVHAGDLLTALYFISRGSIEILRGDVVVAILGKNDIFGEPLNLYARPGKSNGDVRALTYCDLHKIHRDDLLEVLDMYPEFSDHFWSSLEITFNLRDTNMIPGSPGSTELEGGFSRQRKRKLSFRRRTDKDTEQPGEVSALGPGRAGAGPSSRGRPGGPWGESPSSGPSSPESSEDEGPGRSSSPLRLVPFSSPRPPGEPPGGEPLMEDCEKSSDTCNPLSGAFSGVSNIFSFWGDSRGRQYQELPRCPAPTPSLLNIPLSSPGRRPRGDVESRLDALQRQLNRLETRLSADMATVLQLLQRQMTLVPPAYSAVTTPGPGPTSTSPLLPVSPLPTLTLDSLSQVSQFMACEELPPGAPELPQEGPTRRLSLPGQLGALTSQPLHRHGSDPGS

Usually pIC50 stands for the IC50 on a negative log10 scale, so that one unit is a factor of ten. With `N#Cc1ccc2c(-c3ccccc3[C@@H](N)Cc3nc(Br)ccc3F)noc2c1` [Example 17, (S)-2-(6-Bromo-3-fluoropyridine-2-yl)-1-[2-(6-cyanobenzo[d]isoxazol-3-yl)phenyl]-ethan-1-amine hydrochloride], the pIC50 in [1] was 5.51; in series [2], 5.24.
On to `Cc1ccc(C#N)nc1C[C@H](N)c1ccccc1-c1noc2cc(Br)ccc12` [Example 28, (S)-2-{2-Amino-2-[2-(6-bromobenzo[d]isoxazol-3-yl)phenyl]ethyl}-3-methylpyridine-6-carbonitrile], for which the pIC50 in series [2] is 6.00.
In the case of `CS(=O)(=O)c1ccc(F)c(C[C@H](N)c2ccccc2-c2noc3ccc(F)cc23)n1` [Example 22, (S)-1-[2-(5-Fluorobenzo[d]isoxazol-3-yl)phenyl]-2-(3-fluoro-6-methylsulfonylpyridin-2-yl)ethan-1-amine hydrochloride], the pIC50 in [3] is 4.62; in series [1] it was 5.24; in series [4], 4.68; in [5], 4.56.
For the molecule `N#Cc1ccc(F)c(C[C@H](N)c2ccccc2-c2noc3cc(Br)ccc23)n1` [Example 27, (S)-2-{2-Amino-2-[2-(6-bromobenzo[d]isoxazol-3-yl)phenyl]ethyl}-3-fluoropyridine-6-carbonitrile], the pIC50 in [2] was 5.85.
Turning to `N[C@@H](Cc1nc(Br)ccc1F)c1ccccc1-c1noc2cc(F)ccc12` [Example 15, (S)-2-(6-Bromo-3-fluoropyridine-2-yl)-1-[2-(6-fluorobenzo[d]isoxazol-3-yl)phenyl]-ethan-1-amine hydrochloride], the pIC50 in series [2] was 5.92; in [5], 5.29.
In the same order, the values of `N[C@@H](Cc1nc(Br)ccc1F)c1ccccc1-c1noc2cc(Br)ccc12` [Example 16, (S)-2-(6-Bromo-3-fluoropyridine-2-yl)-1-[2-(6-bromobenzo[d]isoxazol-3-yl)phenyl]-ethan-1-amine] are 5.70 and 5.52.
Usually efflux ratio stands for a quotient of directional permeabilities that is used to spot active efflux. Consider `NC(=O)c1ccc(F)c(C[C@H](N)c2ccccc2-c2noc3ccccc23)n1` [Example 72, (S)-6-{2-Amino-2-[2-(benzo[d]isoxazol-3-yl)phenyl]ethyl}-5-fluoropyridine-2-carboxamide formate], for which, in series [6], the efflux ratio at 1 h, 10 μM was found to be 11.3. For the same molecule, the negative logarithm of the IC50 (pIC50) was 4.68 in series [7]; 6.00 in series [8]; 5.92 in [9]; 4.73 in series [10]; 4.99 in series [11].
Regarding `CC(C)S(=O)(=O)c1ccc(F)c(C[C@H](N)c2ccccc2-c2noc3cc(Cl)ccc23)n1` [Example 25, (S)-1-[2-(6-Chlorobenzo[d]isoxazol-3-yl)phenyl]-2-(3-fluoro-6-isopropyisulfonylpyridin-2-yl)ethan-1-amine hydrochloride], the pIC50 in [2] is less than 4.52.
Take `N#Cc1nc(C[C@H](N)c2ccccc2-c2noc3ccccc23)ccc1F` [Example 6, (S)-1-[2-(Benzo[d]isoxazol-3-yl)phenyl]-2-(6-cyano-5-fluoropyridine-2-yl)ethan-1-amine hydrochloride]: the figures for the pIC50 in series [8], in series [9] and in series [11] were 5.74, 6.41 and 5.09, respectively.
Take `N#Cc1cccc(C[C@H](N)c2ccccc2-c2noc3ccccc23)n1` [Example 116, (S)-1-[2-(Benzo[d]isoxazol-3-yl)phenyl]-2-(6-cyanopyridine-2-yl)ethan-1-amine hydrochloride]: the efflux ratio at 1 h, 10 μM in [6] was 1.1. Further, the pIC50 was 4.99 in [7]; 5.47 in series [8]; 6.15 in [9]; 4.95 in series [10]; 4.87 in series [11].
With `CS(=O)(=O)c1ccc(F)c(C[C@H](N)c2ccccc2-c2noc3cc(C(F)(F)F)ccc23)n1` [Example 10, (S)-2-(3-Fluoro-6-methylsulfonylpyridine-2-yl)-1-[2-(6-trifluoromethylbenzo[d]isoxazol-3-yl)phenyl]ethan-1-amine hydrochloride], in series [2], the pIC50 is 4.76.
With `CS(=O)(=O)c1ccc(F)c(C[C@H](N)c2ccccc2-c2noc3cc(Br)ccc23)n1` [Example 21, (S)-1-[2-(6-Bromobenzo[d]isoxazol-3-yl)phenyl]-2-(3-Fluoro-6-methylsulfonylpyridin-yl)ethan-1-amine hydrochloride], the figures for the pIC50 in series [2] and in series [5] were 5.60 and 5.28, respectively.
For the molecule `Cn1nc(-c2ccccc2[C@@H](N)Cc2ccccn2)c2ccccc21` [Example 60, (S)-1-[2-(1-Methyl-1H-indazole-3-yl)phenyl]-2-(pyridine-2-yl)ethan-1-amine hydrochloride], the pIC50 in series [7] is 6.49; in [8] it was less than 4.52; in series [9], 5.51; in series [10] it was 5.04; in series [11], less than 4.52.
Regarding `Cc1ccc(S(C)(=O)=O)nc1C[C@H](N)c1ccccc1-c1noc2cc(Cl)ccc12` [Example 23, (S)-1-[2-(6-Chlorobenzo[d]isoxazol-3-yl)phenyl]-2-(3-methyl-6-methylsulfonylpyridin-2-yl)ethan-1-amine hydrochloride], the pIC50 was 4.86 in series [3], 5.92 in [1] and 5.77 in series [2].
Turning to `CCc1ccc(C)c(C[C@H](N)c2ccccc2-c2noc3ccccc23)n1` [Example 9, (S)-1-[2-(Benzo[d]isoxazol-3-yl)phenyl]-2-(6-ethyl-3-methylpyridine-2-yl)ethan-1-amine hydrochloride], the pIC50 in [8] is 6.43; in series [9] it was 6.59; in series [11], 5.77.
In the case of `Cc1ccc(F)c(C[C@H](N)c2ccccc2-c2noc3ccccc23)n1` [Example 73, (S)-1-[2-(Benzo[d]isoxazol-3-yl)phenyl]-2-(3-fluoro-6-methylpyridin-2-yl)ethan-1-amine hydrochloride], the negative-log IC50 (pIC50) was 6.30 in series [8], 6.40 in series [9] and 5.55 in series [11].
For `Cc1ccc(S(C)(=O)=O)nc1C[C@H](N)c1ccccc1-c1noc2ccccc12` [Example 125, (S)-1-[2-(Benzo[d]isoxazol-3-yl)phenyl]-2-[3-methyl-6-(methylsulfonyl)pyridine-2-yl]ethan-1-amine hydrochloride] the same measures were 6.40, 6.62 and 5.92.
For `N#Cc1ccc2c(-c3ccccc3[C@@H](N)Cc3ccccn3)noc2c1` [Example 29, (S)-1-[2-(6-Cyanobenzo[d]isoxazol-3-yl)phenyl]-2-(pyridine-2-yl)ethan-1-amine] the same measures were 5.05, 5.37 and less than 4.52.
`Cc1ccc2c(-c3ccccc3[C@@H](N)Cc3nc(S(C)(=O)=O)ccc3F)noc2c1` [Example 11, (S)-2-(3-Fluoro-6-methylsulfonylpyridine-2-yl)-1-[2-(6-methylbenzo[d]isoxazol-3-yl)phenyl]ethan-1-amine hydrochloride]: the efflux ratio at 1 h, 10 μM in series [6] was determined as 5.2. Further, the negative-log IC50 (pIC50) in [3] was 4.67; in series [1] it was 5.33; in series [2] it was 5.49; in [4], 4.52.
On to `CN(C)C(=O)c1ccc(F)c(C[C@H](N)c2ccccc2-c2noc3ccccc23)n1` [Example 74, (S)-6-{2-Amino-2-[2-(benzo[d]isoxazol-3-yl)phenyl]ethyl}-5-fluoro-N,N-dimethylpyridin-2-carboxamide hydrochloride], for which the efflux ratio at 1 h, 10 μM in series [6] was 16.7. For the same molecule, the pIC50 was 5.00 in series [7]; 5.34 in series [8]; 5.74 in [9]; 4.94 in [10]; 4.68 in [11].
